Source: patent EP0414688B1, “PROCESS FOR REGULATING THE ABSORPTION RATE OF DRUGS AND A PHARMACEUTICAL FORMULATION” (NEUVONEN, Pertti J., priority 1988, dated 1989)

Tests used:
[1] = cross-over study of oral absorption with concomitant magnesium hydroxide; assay type: in vivo, test persons
Experimental: In persons having a poor absorption of fenamates the increase of peak concentrations of e.g. tolfenamic acid can be up to 10-fold through the action of magnesium hydroxide (fig. 4).
Since medicines are generally taken with water, the administration of pharmaceutical tablets in the above tests was immediately followed by 150 ml of water with magnesium hydroxide blended therein.

[2] = Pentikainen et al., European Journal of Clinical Pharmacology 1984; cited from earlier work

Structure (SMILES) | rate of absorption ([1]; ibuprofen 400 mg (tabl. BURANA), concomitant ingestion of Mg-hydroxide) | increase of peak concentrations through the action of magnesium hydroxide ([1]; human, in vivo) | absorption from alimentary canal [2]
CC(C)Cc1ccc(C(C)C(=O)O)cc1 (stereo not drawn) [ibuprofen] | accelerated significantly |  | 
Cc1c(Cl)cccc1Nc1ccccc1C(=O)O [tolfenamic acid] |  | up to 10 fold | relatively slow
